Patent US8933070B2, “Methods of targeting PTEN mutant diseases and compositions therefor” (University Health Network, priority 2010, dated 2015)

Assays:
PLK1 = target: T1, PLK1 (Homo sapiens, UniProt P53350); assay: PLK1 inhibition assay (Z-Lyte); type: biochemical; conditions: dose of 10 μM; read-out: PLK1 relative inhibition percentage
T1 construct: purchased Invitrogen PV3501

PLK2 = target: T2, PLK2 (Homo sapiens, UniProt Q9NYY3); assay: PLK2 inhibition assay (Z-Lyte); type: biochemical; conditions: dose of 10 μM; read-out: PLK2 relative inhibition percentage
T2 construct: purchased Invitrogen PV4204
Experimental: PLK2 inhibition was determined using the Z-Lyte assay kit from Invitrogen (cat# PV3802). The assay was performed using the recommended manufacturer's instructions with 60 μM ATP and 133 nM PLK2 (Invitrogen cat #PV4204). The % inhibition values were determined according to the manufacturer's directions and IC50 values were obtained using a non-linear 4 point logistic curve fit (XLfit4, IDBS)

[1] = test system: HCT116 p53^+/+ colon cancer cell line; assay: Cell growth inhibition, SRB assay, extended panel; type: cell-based; conditions: Homo sapiens, HCT-116, read-out: GI50 Range HCT116 p53^+/+
Experimental: (§1) Breast cancer cells (MCF-7, MDA-MB-468 and HCC1954), colon cancer cells (SW620) and lung cancer cells (A549), together with human mammary epithelial primary cells (HMEC) were seeded (1000 to 4000 per 80 μl per well depending on the cell growth rate) into 96-well plates 24 hours before compound overlay. Compounds were prepared as 10 mM stock solutions in 100% DMSO which were diluted with DMEM (Dulbecco's Modified Eagle's Medium) cell growth Medium (Invitrogen, Canada) containing 10% FBS (Fetal Bovine Serum) to concentrations ranging from 50 nM to 250 μM. Aliquots (20 μl) from each concentration were overlaid to 80 μl of the pre-seeded cells in the 96-plates to make final concentrations of 10 nM to 50 μM. The cells were cultured for 5 days before the Sulforhodamine B (SRB) assay was performed to determine the compound's cell growth inhibition activity.
(§2) Sulforhodamine B (Sigma, Canada) is a water-soluble dye that binds to the basic amino acids of cellular proteins. Thus, colorimetric measurement of the bound dye provides an estimate of the total protein mass that is related to the cell number. The cells are fixed in situ by gently aspirating off the culture media and adding 50 μl ice cold 10% Trichloroacetic Acid (TCA) per well and incubated at 4° C. for 30-60 min. The plates are washed with water five times and allowed to air dry for 5 min. Addition of 50 μl 0.4% (w/v) SRB solution in 1% (v/v) acetic acid to each well and incubatation for […] at RT completes the staining reaction. Following staining, plates are washed four times with 1% acetic acid to remove unbound dye and then allowed to air dry for 5 min. The stain is solubilized with 100 μl of 10 mM Tris pH 10.5 per well. Absorbance is read at 570 nm.
(§3) The percentage (%) of relative growth inhibition was calculated by comparing to DMSO-treated only cells (100%). GI50's were determined for compounds with cytotoxic activity. The GI50 was calculated using GraphPad PRISM software (GraphPad Software, Inc., USA).
(§4) In addition to the cell lines tested as described above, selected compounds have been assayed against an extended panel. These include: breast cancer cell lines (T-47D, MDA-MB-231, Hs578T, 8T-474, SKBr-3 and HCC1954), a lung cancer cell line (H358), brain cancer cell lines (A172, Hs683 and SK-N-SH), colon cancer cell lines (Colo 205, HCT-15, HCT116 p53^+/+ and HCT116 p53^−/−), ovarian cancer cell lines (OVCAR-3, SK-OV-3 and SW626), a melanoma cell line (518A2), a prostate cancer cell line (PC-3) and an immortalized breast cell line (184A1). The SRB assay described above was used to assay test compounds against the extended panel (Table 6).

[2] = test system: HCT116 p53^−/− colon cancer cell line; assay: Cell growth inhibition, SRB assay, extended panel; type: cell-based; conditions: Homo sapiens, HCT-116, read-out: GI50 Range HCT116 p53^−/−
Experimental: as §1, §2, §3, §4

T1 sequence (P53350 whole entry): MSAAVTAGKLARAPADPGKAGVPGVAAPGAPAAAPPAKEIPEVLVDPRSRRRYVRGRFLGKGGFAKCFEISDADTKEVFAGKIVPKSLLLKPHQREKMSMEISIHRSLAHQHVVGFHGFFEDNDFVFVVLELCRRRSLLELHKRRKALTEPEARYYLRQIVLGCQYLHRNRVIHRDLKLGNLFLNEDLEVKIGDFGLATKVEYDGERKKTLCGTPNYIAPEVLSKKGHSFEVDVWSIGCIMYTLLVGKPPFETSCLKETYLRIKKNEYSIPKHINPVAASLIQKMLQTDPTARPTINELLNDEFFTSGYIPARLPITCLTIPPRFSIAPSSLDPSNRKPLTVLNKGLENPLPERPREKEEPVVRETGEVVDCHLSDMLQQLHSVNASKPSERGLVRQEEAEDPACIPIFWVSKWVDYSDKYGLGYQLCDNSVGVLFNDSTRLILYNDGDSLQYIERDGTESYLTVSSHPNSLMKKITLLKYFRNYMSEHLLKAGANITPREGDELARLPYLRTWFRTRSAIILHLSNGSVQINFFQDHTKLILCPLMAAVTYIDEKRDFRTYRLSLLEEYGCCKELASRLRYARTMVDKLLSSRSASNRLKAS
T2 sequence (Q9NYY3 whole entry): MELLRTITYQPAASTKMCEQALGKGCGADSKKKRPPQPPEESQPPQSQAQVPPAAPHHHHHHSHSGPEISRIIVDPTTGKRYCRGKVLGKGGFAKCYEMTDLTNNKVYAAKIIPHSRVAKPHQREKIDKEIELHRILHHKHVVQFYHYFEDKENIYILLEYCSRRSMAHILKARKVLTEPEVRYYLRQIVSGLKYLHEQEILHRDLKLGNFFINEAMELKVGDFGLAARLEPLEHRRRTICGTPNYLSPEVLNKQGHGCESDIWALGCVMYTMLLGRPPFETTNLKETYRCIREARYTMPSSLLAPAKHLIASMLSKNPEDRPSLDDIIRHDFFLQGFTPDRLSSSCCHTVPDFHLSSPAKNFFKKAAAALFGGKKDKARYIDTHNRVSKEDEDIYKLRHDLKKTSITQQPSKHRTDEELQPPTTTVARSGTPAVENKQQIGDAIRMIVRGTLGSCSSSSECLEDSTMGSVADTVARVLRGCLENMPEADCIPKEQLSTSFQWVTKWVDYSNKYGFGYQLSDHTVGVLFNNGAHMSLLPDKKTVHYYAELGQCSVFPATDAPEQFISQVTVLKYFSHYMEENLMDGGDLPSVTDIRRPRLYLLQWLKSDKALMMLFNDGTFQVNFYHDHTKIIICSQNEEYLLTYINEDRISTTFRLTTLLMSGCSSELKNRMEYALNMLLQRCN

inhibition at 10 µM (PLK1): < 50%
inhibition at 10 µM (PLK2): < 50%
GI50 [1]: < 5 µM
GI50 [2]: < 5 µM
Structure (SMILES): CN1CCN(c2ccc(/C=C/c3n[nH]c4cc(C=C5C(=O)Nc6ccccc65)ccc34)cn2)CC1 [Compound 32]
